Experimental data: patent US20050215609A1, “Novel uses of prostaglandin d2, prostaglandin d2 agonist and prostaglandin d2 antagonist” (priority 2002, published 2005)
Structures can show the parent of a compound that is named as a salt.

Key:
Male ddY mice [1] = test: Anorexigenic action of PGD2 antagonist, food intake of mice after ICV administration (Experiment 3 (1)); assay type: in vivo; conditions: BW A868C 0.72 and 7.2 μg/mouse
Method: (§1) The weight of food pellets was measured before and after ICV injection and cumulative food intake was calculated.
The PGD2 antagonist used in Experiment 2, i.e., (±) 3-benzyl-5-(6-carboxyhexyl)-1-(2-cyclohexyl-2-hydroxyethylamino)hydantoin (BW A868C, Sigma-Aldrich), was used to investigate anorexigenic action in mice. The compound was administered to mice via ICV injection (0.72 and 7.2 μg/mouse) as described in Experiment 1, and the food intake was compared with the group that received the vehicle (ACSF).

PGD2 receptor = target: T1, PGD2 receptor (Mus musculus, UniProt P70263); test: Effect of PGD2 antagonist on the orexigenic action of PGD2, combined ICV administration (Experiment 2); assay type: in vivo; conditions: mice, two hours after administration
T1 construct: injected into the third cerebral ventricle; from tissue; host or cells: living ddY mouse, brain (ICV injection into the third cerebral ventricle)
T1 sequence (P70263 1-357): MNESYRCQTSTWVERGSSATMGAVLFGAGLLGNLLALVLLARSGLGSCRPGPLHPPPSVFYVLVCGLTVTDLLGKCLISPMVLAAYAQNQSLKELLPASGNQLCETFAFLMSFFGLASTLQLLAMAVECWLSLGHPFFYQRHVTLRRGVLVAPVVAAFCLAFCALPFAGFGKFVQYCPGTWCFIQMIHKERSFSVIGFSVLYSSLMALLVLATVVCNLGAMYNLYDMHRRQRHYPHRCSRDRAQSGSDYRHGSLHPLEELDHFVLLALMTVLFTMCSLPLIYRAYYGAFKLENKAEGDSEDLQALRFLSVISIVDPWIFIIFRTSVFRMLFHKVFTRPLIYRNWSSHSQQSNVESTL
Method: as §1
(§2) Values were expressed as the mean ± SEM. Analysis of variance (ANOVA) followed by Bonferroni's t-test was used to assess differences among groups. P values less than 0.05 were considered significant.
The groups, one of which was administered PGD2 alone and the other received combined administration of PGD2/PGD2 antagonist, were used to investigate the effect of PGD2 antagonist on the orexigenic action of PGD2. PGD2 antagonist, (±) 3-benzyl-5-(6-carboxyhexyl)-1-(2-cyclohexyl-2-hydroxyethylamino)hydantoin (BW A868C, Sigma-Aldrich) was used.

SD rat [2] = test: Cumulative food intake of fasted SD rat after ICV administration (Experiment 3 (2), Table 1); assay type: in vivo; conditions: SD rat fasted 24 hours, 100 μg
Method: as §1, §2
(§3) The PGD2 antagonist, (Z)-7-[(1R,2R,3S,5S)]-2-(5-hydroxybenzo[b]thiophene-3-ylcarbonylamino)-10-norpinane-3-yl]heptan-5-enonic acid (formula IA-a1) was used to investigate anorexigenic action […]. The sodium salt of this compound was administered to SD rat, fasted for 24 hours, via ICV injection as described above (dosage: 0.1, 1, 10, 100 μg/rat), and the food intake was compared with the group that received vehicle (5% DMSO in saline).

SD rat [3] = test: Cumulative food intake of SD rat after intraperitoneal administration (Experiment 3 (2), Table 2); assay type: in vivo; conditions: i.p., 30 mg/kg
Method: as §1, §2
Also, another group of SD rat was administered the test compound via intraperitoneal administration (30 mg/kg) and the food intake was compared with the group that received vehicle (5% DMSO in saline).

[4] = Changes in body weight of fasted SD rat after ICV administration (Experiment 3 (2), Table 1); assay type: in vivo; conditions: SD rat fasted 24 hours, 100 μg
Method: as §3

Male ddY mice [5] = test: Food intake of mice after ICV administration of PGD2 (Experiment 1); assay type: in vivo, mouse
Method: as §1, §2

O=C(O)CCCCCCC1C(=O)N(Cc2ccccc2)C(=O)N1NCC(O)C1CCCCC1 (racemic) [BW A868C, (±)-3-benzyl-5-(6-carboxyhexyl)-1-(2-cyclohexyl-2-hydroxyethylamino)hydantoin]
food intake compared to vehicle (Male ddY mice [1]): inhibition of food intake was observed | effect on the orexigenic action of PGD2 (food intake) (PGD2 receptor): inhibited the orexigenic action of PGD2 completely

CC1(C)C2CC1[C@H](NC(=O)c1csc3ccc(O)cc13)[C@@H](C/C=C\CCCC(=O)O)C2 (some centres unmarked) [Compund (IA-a1) (Na salt)]
Cululative Food intake (g) 1 hr. (SD rat [2]; 1 hr.): 5.18 ± 0.47 g | Cululative Food intake (g) 2 hr. (SD rat [2]; 2 hr.): 6.15 ± 0.50 g | Cululative Food intake (g) 4 hr. (SD rat [2]; 4 hr.): 6.86 ± 0.49 g | Cululative Food intake (g) 24 hr. (SD rat [2]; 24 hr.): 25.71 ± 1.30 g | Cululative Food intake (g) 1 hr. (SD rat [3]; 1 hr.): 2.38 ± 0.41 g | Cululative Food intake (g) 2 hr. (SD rat [3]; 2 hr.): 4.30 ± 0.67 g | Cululative Food intake (g) 4 hr. (SD rat [3]; 4 hr.): 7.85 ± 0.66 g | Cululative Food intake (g) 24 hr. (SD rat [3]; 24 hr.): 32.05 ± 1.09 g | Changes in body weght (g) 1 hr. ([4]; 1 hr.): 0.89 ± 0.79 g | Changes in body weght (g) 2 hr. ([4]; 2 hr.): 2.89 ± 1.28 g | Changes in body weght (g) 4 hr. ([4]; 4 hr.): 1.07 ± 1.47 g | Changes in body weght (g) 24 hr. ([4]; 24 hr.): 7.20 ± 2.60 g

CCCCC[C@H](O)/C=C/[C@H]1C(=O)C[C@H](O)[C@@H]1C/C=C\CCCC(=O)O [PGD2, prostaglandin D2]
food intake versus control group (Male ddY mice [5]; 0.2 μg PGD2/mouse, 60 and 120 min after the injection): significant increase in food intake | food intake versus control group (Male ddY mice [5]; 2 μg PGD2/mouse, 60 and 120 min after the injection): significant increase in food intake | food intake versus control group (Male ddY mice [5]; 20 μg PGD2/mouse): the food intake was temporally inhibited shortly after the injection, but the food intake was increased thereafter
